Data reported in US20200288710A1, “SUBSTITUTED SULPHONAMIDES FOR CONTROLLING ANIMAL PESTS” (BAYER CROPSCIENCE AKTIENGESELLSCHAFT, priority 2016, published 2020).
Where two headings read alike, the source gives them in different places.

How the values were obtained:
[1] = log P by HPLC on reversed-phase column (EEC Directive 79/831 Annex V.A8); format: physicochemical; details: reversed-phase HPLC column (C18)
Description: The log P values were determined according to EEC Directive 79/831 Annex V.A8 by HPLC (highperformance liquid chromatography) on a reversed-phase column (C18). Temperature 43° C. The calibration is effected with unbranched alkan-2-ones (having 3 to 16 carbon atoms), for which the log P values are known. The determination of the M^+ by LC-MS in the acidic range was carried out at pH 2.7 using the mobile phases 0.1% aqueous formic acid and acetonitrile (contains 0.1% formic acid); linear gradient from 10% acetonitrile to 95% acetonitrile, instrument: Agilent 1100 LC system, Agilent MSD system, HTS PAL. The determination of the M^+ by LC-MS in the neutral range was carried out at pH 7.8 using the mobile phases 0.001 molar aqueous ammonium bicarbonate solution and acetonitrile; linear gradient from 10% acetonitrile to 95% acetonitrile. The log P values for the acidic range (as log P [a]) and/or for the neutral range (as log P [n]) were stated in the tables and preparation examples.

[2] = system: Meloidogyne incognita; test: Meloidogyne incognita test; format: in vivo; details: 336 h, lettuce, after 14 days, read-out: nematicidal efficacy (formation of galls)
Outline: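 Gall formation on lettuce roots scored after 14 days: 0% means gall count equals untreated control, 100% means none. Sand vessels held the compound (acetone concentrate diluted in water), southern root-knot nematode egg/larvae suspension and lettuce seeds.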

[3] = system: Myzus persicae; test: Myzus persicae spray test (Chinese cabbage leaf discs); format: in vivo; details: foliar, 120 h, after 5-6 days, read-out: efficacy
Outline: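 Formulated compound in acetone/dimethylformamide, diluted in water with 1000 ppm emulsifier, was sprayed onto Brassica pekinensis leaf discs carrying mixed-stage Myzus persicae. Percent mortality was read 5-6 days later (0% = no aphids killed, 100% = all killed).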

[4] = system: Phaedon cochleariae; test: Phaedon cochleariae spray test; format: in vivo; details: foliar, 168 h, Chinese cabbage leaf discs, larvae, after 7 days, read-out: efficacy
Outline: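 Mortality of beetle larvae scored at day 7, expressed as % (0% none killed, 100% all). Formulation: compound in solvent, made up and further diluted with emulsifier-containing water (1000 ppm emulsifier).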

[5] = system: Tetranychus urticae; test: Tetranychus urticae spray test, OP-resistant; format: in vivo; details: foliar, 144 h, bean leaf discs, after 6 days, read-out: efficacy
Description: Tetranychus urticae—Spray Test, OP-Resistant
To produce a suitable preparation of active compound, 1 part by weight of active compound is dissolved using the specified parts by weight of solvent and made up with water containing an emulsifier concentration of 1000 ppm until the desired concentration is attained. To produce further test concentrations, the formulation is diluted with emulsifier-containing water.
Discs of bean leaves (Phaseolus vulgaris) infested with all stages of the greenhouse red spider mite (Tetranychus urticae) are sprayed with an active compound preparation of the desired concentration.
After 6 days, the efficacy in % is determined. 100% means that all the spider mites have been killed; 0% means that no spider mites have been killed.

[6] = system: Myzus persicae; test: Myzus persicae oral test; format: in vivo; details: 120 h, oral uptake, after 5 days, read-out: efficacy
Outline: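 Aphids of mixed ages imbibe, through parafilm, compound solution (acetone stock, water-diluted) combined with sugar-supplemented IPL41 medium to 200 μl. Efficacy read at day 5 as percent killed, 0% meaning no deaths.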

[7] = system: Lucilia cuprina; test: Lucilia cuprina test; format: in vivo; details: 48 h, L1 larvae, after 2 days, read-out: efficacy (kill in %)
Description: Lucilia cuprina Test Solvent: dimethyl sulphoxide To produce a suitable preparation of active compound, 10 mg of active compound are mixed with 0.5 ml of dimethyl sulphoxide, and the concentrate is diluted with water to the desired concentration. About 20 L1 larvae of the Australian sheep blowfly (Lucilia cuprina) are transferred into a test vessel containing minced horsemeat and the active compound preparation of the desired concentration. After 2 days, the kill in % is determined. 100% means that all the larvae have been killed; 0% means that no larvae have been killed.

[8] = acidic range, pH 2.7, HPLC C18, 43° C., read-out: log P (acidic)
[9] = neutral range, pH 7.8, HPLC C18, 43° C., read-out: log P (neutral)

| SMILES | pest or weed control at 20 ppm [2] [%] | pest or weed control at 500 g/ha [3] [%] | pest or weed control at 500 g/ha [5] [%] | pest or weed control at 20 ppm [6] [%] | further results |
| --- | --- | --- | --- | --- | --- |
| CCOC(=O)c1cc(O)n(-c2ccccc2Cl)n1 [ethyl 1-(2-chlorophenyl)-5-hydroxy-1H-pyrazole-3-carboxylate] |  |  |  |  | chromatographic logP [1, 8]: 1.75 |
| Cc1c(F)cccc1S(=O)(=O)NC(=O)c1cn(C)c(-c2c(F)cccc2F)n1 [Example 318] | 90 | 100 | 90 | 100 | pest or weed control at 500 g/ha [4]: 100% |
| Cc1ccsc1S(=O)(=O)NC(=O)c1cn(C)c(-c2ccccc2Cl)n1 [Example 212] | 90 | 100 | 90 | 100 |  |
| Cc1ccccc1S(=O)(=O)NC(=O)c1nc(-c2ccccc2Cl)n(C)c1Cl [5-chloro-2-(2-chlorophenyl)-1-methyl-N-[(2-methylphenyl)sulphonyl]-1 Himidazole-4-carboxamide] |  |  |  |  | chromatographic logP [1, 8]: 3.17 |
| Cc1cc(S(=O)(=O)NC(=O)c2cn(C)c(-c3ccccc3Cl)n2)c(C)s1 [Example 217] | 90 | 90 | 100 | 100 | pest or weed control at 500 g/ha [4]: 83% |
| Cn1c(C(=O)O)cnc1-c1c(F)cccc1F [2-(2,6-difluorophenyl)-1-methyl-1H-imidazole-5-carboxylic acid] |  |  |  |  | chromatographic logP [1, 8]: 0.46 |
| Cn1nc(-c2c(F)cccc2F)nc1C(=O)NS(=O)(=O)c1ccccc1Cl [Example 407] | 90 |  | 90 |  |  |
| COc1ccc(C)c(S(=O)(=O)NC(=O)c2cn(C)c(-c3ncccc3Cl)n2)c1 [Example 582] | 90 | 100 | 90 |  | pest or weed control at 500 g/ha [4]: 83%; pest or weed control at 4 ppm ([6]; 4 ppm): 100% |
| Cn1c(C(=O)OC(C)(C)C)cnc1-c1c(F)cccc1F [tert-butyl 2-(2,6-difluorophenyl)-1-methyl-1H-imidazole-5-carboxylate] |  |  |  |  | chromatographic logP [1, 9]: 3 |
| CCOC(=O)c1ncn(C)c1C [ethyl 1,5-dimethyl-1H-imidazole-4-carboxylate] |  |  |  |  | chromatographic logP [1, 9]: 0.85 |
| O=C(NS(=O)(=O)CC(F)(F)F)c1cn(-c2ccccc2)c(-c2ccccc2Cl)n1 [Example 74] |  |  | 100 |  |  |
| CCc1[nH]c(-c2c(F)cccc2F)nc1C(=O)O [2-(2,6-difluorophenyl)-5-ethyl-1H-imidazole-4-carboxylic acid] |  |  |  |  | chromatographic logP [1, 9]: 0.45 |
| Cn1cc(C(=O)NS(=O)(=O)c2cccc(Cl)c2F)nc1-c1c(F)cccc1F [Example 315] | 100 | 100 | 90 | 100 |  |
| Cn1cnc(C(=O)OC(C)(C)C)c1 [tert-butyl 1-methyl-1H-imidazole-4-carboxylate] |  |  |  |  | chromatographic logP [1, 8]: 0.63 |
| Cn1cc(C(=O)NS(=O)(=O)c2ccccc2Cl)nc1-c1cnccc1Cl [Example 495] | 90 |  | 90 |  |  |
| CCn1cc(C(=O)NS(=O)(=O)CC)nc1-c1ccccc1Cl [Example 78] | 90 | 90 | 90 |  |  |
| COc1ccc(Cl)c(S(=O)(=O)NC(=O)c2nc(-c3ccccc3Cl)n(C)c2C)c1 [Example 104] | 90 |  | 90 | 100 | pest or weed control at 500 g/ha [4]: 100% |
| Cn1cc(C(=O)NS(=O)(=O)c2cccc(Cl)c2Cl)nc1-c1c(F)cccc1F [Example 173] | 100 | 100 | 90 | 100 |  |

| SMILES | pest or weed control at 20 ppm [2] [%] | pest or weed control at 500 g/ha [3] [%] | pest or weed control at 500 g/ha [5] [%] | pest or weed control at 20 ppm [6] [%] | further results |
| --- | --- | --- | --- | --- | --- |
| CCS(=O)(=O)NC(=O)c1cn(C)c(-c2c(Cl)cccc2Cl)n1 [Example 82] | 90 | 90 | 90 |  |  |
| Cc1ccccc1-c1nc(C(=O)NS(=O)(=O)CC(F)(F)F)cn1C [Example 87] |  | 100 | 90 |  |  |
| Cc1c(C(=O)O)nc(-c2c(F)cccc2F)n1C [2-(2,6-difluorophenyl)-1,5-dimethyl-1H-imidazole-4-carboxylic acid] |  |  |  |  | chromatographic logP [1, 9]: 2 |
| CCOC(=O)c1nc(-c2c(F)cccc2F)n(C)c1C [ethyl 2-(2,6-difluorophenyl)-1,5-dimethyl-1H-imidazole-4-carboxylate] |  |  |  |  | chromatographic logP [1, 9]: 2 |
| CCOC(=O)c1nc(-c2c(F)cccc2F)[nH]c1CC [ethyl 2-(2,6-difluorophenyl)-5-ethyl-1H-imidazole-4-carboxylate] |  |  |  |  | chromatographic logP [1, 8]: 1.73 |
| Cc1cc(C(=O)NS(=O)(=O)c2ccccc2Cl)nn1-c1ccccc1C(F)(F)F [Example 291] | 90 |  | 90 |  |  |
| COc1ccc(Cl)c(S(=O)(=O)NC(=O)c2cn(C)c(-c3c(Cl)cccc3Cl)n2)c1 [Example 101] | 90 | 90 | 90 | 100 | pest or weed control at 100 ppm [7]: 100%; pest or weed control at 500 g/ha [4]: 100% |
| CCS(=O)(=O)NC(=O)c1nc(-c2ccccc2Cl)n(C)c1C [Example 70] |  | 90 | 90 | 100 |  |
| CCOC(=O)c1cc(OC)n(-c2ccccc2Cl)n1 [ethyl 1-(2-chlorophenyl)-5-methoxy-1H-pyrazole-3-carboxylate] |  |  |  |  | chromatographic logP [1, 8]: 2.61 |
| COc1cc(C(=O)O)nn1-c1ccccc1Cl [1-(2-chlorophenyl)-5-methoxy-1H-pyrazole-3-carboxylic acid] |  |  |  |  | chromatographic logP [1, 8]: 1.63 |
| Cn1cc(C(=O)NS(=O)(=O)c2c(Cl)cccc2Cl)nc1-c1cccc(Cl)c1Cl [Example 568] | 90 | 100 | 90 | 100 | pest or weed control at 500 g/ha [4]: 83% |
| Cc1cc(C(=O)NS(=O)(=O)c2cc(Cl)ccc2Br)nn1-c1ccccc1C(F)(F)F [Example 293] | 90 |  | 100 |  |  |
| Cn1c(C(=O)OC(C)(C)C)cnc1Br [tert-butyl 2-bromo-1-methyl-1H-imidazole-5-carboxylate] |  |  |  |  | chromatographic logP [1, 9]: 2.54 |
| Cn1cc(C(=O)NS(=O)(=O)c2ccc(Cl)cc2)nc1-c1c(F)cccc1F [Example 46] | 100 | 90 | 90 |  |  |
| Cc1ccsc1S(=O)(=O)NC(=O)c1cn(C)c(-c2ncccc2F)n1 [Example 573] |  | 90 | 90 | 100 |  |
| Cc1ccc(S(=O)(=O)NC(=O)c2cn(C)c(-c3c(F)cccc3F)n2)s1 [Example 351] | 90 |  | 90 |  | pest or weed control at 100 g/ha ([3]; 100 g/ha): 90% |
| COc1ccc(Cl)c(S(=O)(=O)NC(=O)c2nc(-c3c(F)cccc3F)nn2C)c1 [Example 406] | 90 |  | 90 |  |  |
| Cc1ccccc1S(=O)(=O)NC(=O)c1cn(C)c(-c2cccc(Cl)c2Cl)n1 [Example 519] | 100 | 90 |  | 100 | pest or weed control at 100 ppm [7]: 100%; pest or weed control at 500 g/ha [4]: 100% |
